{"source": "paper PMC8342488", "about": "“Characterization of a triad of genes in cyanophage S-2L sufficient to replace adenine by 2-aminoadenine in bacterial DNA” (Nature Communications, 2021)", "molecules": {"B1": {"name": "S-2L PurZ (homologue of adenylosuccinate synthetase of cyanophage S-2L) (enzyme)", "chain": "MLSIPPYYRVKNCNLIVDCQYGSTGKGLLAGYLGALEAPQVLCMAPSPNAGHTLVEEDGTARVHKMLPLGITSPSLERIYLGPGSVIDMDRLLEEYLALPRQVELWVHQNAAVVLQEHRDEEAAGGLAPGSTRSGAGSAFIAKIRRRPGTLLFGEAVRDHPLHGVVRVVDTRTAQDMLFRTRSIQAEGCQGYSLSVHHGAYPYCTARDVTTAQLIADCGLPYDVARIARVVGSMRTYPIRVANRPEAGEWSGPCYPDSVECQFADLGLEQEYTTVTKLPRRIFTFSAIQAHEAIAQNGVDEVFLNFAQYPPSLGALEDILDAIEARAEVTYVGFGPKVTDVYHTPTRAELEGLYARYRR", "notes": "PurZ of cyanophage S-2L, product of the gene purZ; synthetic gene optimised for E. coli; Crystallised with dGMP and soaked with dATP; The dimer is made by crystallographic symmetry; source: E. coli BL21-CodonPlus (DE3)-RIPL, purified (Ni-NTA, TEV cleavage, Superdex 200); not shown: His14, N-terminal, cleaved"}}, "key": {"S-2L PurZ [1]": {"biological_target": "T1, S-2L PurZ (Cyanophage S-2L, UniProt A0A7U3TBV6)", "T1 construct": "E. coli codon-optimized synthetic gene, N-terminal 14-His tag removed by TEV, expressed in E. coli; dimer", "assay": "HPLC product analysis", "type": "biochemical", "details": "10 mM aspartate, dGMP, 5 mM MgSO4, pH 7.5, 37 °C"}, "S-2L MazZ [2]": {"biological_target": "T2, S-2L MazZ (Cyanophage S-2L, UniProt A0A7U3TBV3)", "T2 construct": "gene S2L_23; E. coli codon-optimized synthetic gene, N-terminal 14-His tag removed by TEV, expressed in E. coli; homotetramer", "assay": "HPLC product analysis", "type": "biochemical", "details": "100 uM nucleotide, 5 mM MgCl2, pH 7.5, 37 °C"}, "S-2L PurZ [3]": {"biological_target": "T1, S-2L PurZ", "assay": "X-ray crystal structure, […] Å", "type": "binding", "details": "co-crystallised with dGMP, soaked with dATP; pH 7"}, "[4]": {"biological_target": "S-2L MazZ (MazG-like (d)GTP-specific nucleotide diphosphohydrolase of cyanophage S-2L) (cyanophage S-2L)", "assay": "crystal structure; S-2L MazZ with the dGTP dephosphorylation product (dGDP) and Mn2+, 1.43 Å; crystals grown at 18 °C in 200 mM Li2SO4, 1.26 M (NH4)2SO4, 100 mM Tris pH 8.5; tetramer in the asymmetric unit"}, "S-2L MazZ [5]": {"biological_target": "T2, S-2L MazZ", "assay": "X-ray crystal structure, […] Å", "type": "binding", "details": "crystallised with dGTP; dephosphorylation product dGDP; three Mn2+ ions; pH 8.5"}, "[6]": {"biological_target": "the molecule itself", "assay": "crystal structure; S-2L PurZ with dGMP and dATP, 1.7 Å; crystals grown at 4 °C in 15% Tacsimate, 2% PEG 3350, 100 mM HEPES pH 7; dimer reconstructed through crystallographic symmetry"}}}
{"molecule": "N[C@@H](CC(=O)O)C(=O)O", "note": "[aspartic acid]", "values": [{"measurement": "HPLC product analysis", "setting": "S-2L PurZ [1]; dATP/ATP", "value": "reaction catalyzed by PurZ in presence of dGMP, Asp and dATP/ATP"}]}
{"molecule": "Nc1nc2c(ncn2[C@@H]2O[C@H](COP(=O)(O)OP(=O)(O)OP(=O)(O)O)[C@@H](O)[C@H]2O)c(=O)[nH]1", "note": "[GTP]", "values": [{"measurement": "HPLC product analysis", "setting": "S-2L MazZ [2]", "value": "Its preferential substrates, dGTP and GTP, are rapidly dephosphorylated to dGMP and GMP"}]}
{"molecule": "Nc1nc2c(ncn2[C@H]2C[C@H](O)[C@@H](COP(=O)(O)OP(=O)(O)OP(=O)(O)O)O2)c(=O)[nH]1", "note": "[dGTP]", "values": [{"measurement": "HPLC product analysis", "setting": "S-2L MazZ [2]", "value": "Its preferential substrates, dGTP and GTP, are rapidly dephosphorylated to dGMP and GMP"}]}
{"molecule": "Nc1ncnc2c1ncn2[C@H]1C[C@H](O)[C@@H](COP(=O)(O)OP(=O)(O)OP(=O)(O)O)O1", "note": "[dATP]", "values": [{"measurement": "X-ray crystal structure, 1.7 Å", "setting": "S-2L PurZ [3]", "value": "We crystallized S-2L PurZ with two of its substrates, dGMP and dATP"}]}
{"molecule": "Nc1nc2c(ncn2[C@H]2C[C@H](O)[C@@H](COP(=O)(O)O)O2)c(=O)[nH]1", "note": "[dGMP]", "values": [{"measurement": "X-ray crystal structure, 1.7 Å", "setting": "S-2L PurZ [3]", "value": "We crystallized S-2L PurZ with two of its substrates, dGMP and dATP"}]}
{"molecule": "Nc1ncnc2c1ncn2[C@@H]1O[C@H](COP(=O)(O)OP(=O)(O)OP(=O)(O)O)[C@@H](O)[C@H]1O", "note": "[ATP]", "values": [{"measurement": "HPLC product analysis", "setting": "S-2L PurZ [1]; 2 mM nucleotides", "value": "it can act as a dATPase, but stays functional after dATP pool depletion by using ATP"}]}
{"molecule": "S-2L MazZ (MazG-like (d)GTP-specific nucleotide diphosphohydrolase of cyanophage S-2L) (enzyme)", "values": [{"measurement": "stoichiometry N", "setting": "[4]", "value": 4}]}
{"molecule": "Nc1nc2c(ncn2[C@H]2C[C@H](O)[C@@H](COP(=O)(O)OP(=O)(O)O)O2)c(=O)[nH]1", "note": "[dGDP]", "values": [{"measurement": "X-ray crystal structure, 1.43 Å", "setting": "S-2L MazZ [5]", "value": "The dGDP intermediate observed in crystallo is almost completely buried inside the enzyme"}]}
{"molecule": "B1", "values": [{"measurement": "stoichiometry N", "setting": "[6]", "value": 2}]}
